Biological target: T1, MSI1 RRM1 (Homo sapiens, UniProt O43347)
T1 sequence (O43347 20-110 limits assumed): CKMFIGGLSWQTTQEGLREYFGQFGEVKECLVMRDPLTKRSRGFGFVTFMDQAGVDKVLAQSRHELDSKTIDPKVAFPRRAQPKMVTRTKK
Assay: HSQC chemical shift mapping
Type: binding
Details: MSI1 RRM1 in presence vs absence of compound
Text: To test the hypothesis that R12–8–44–3 engages MSI1 RRM1 though specific binding interactions (rather than non-specific aggregation), we used HSQC chemical shift mapping. We collected spectra for this construct in the presence and absence of R12–8–44–3 (Figure 3a), using previously-reported assignments from a very similar construct. […] While not all peaks were assigned in our reference spectrum, we gratifyingly find that of the assigned peaks, those with the largest chemical shift differences (Phe23, Lys93) comprise exactly the expected binding site for R12–8–44–3 (Figure 3b).
Figure 3: Structural characterization of R12–8–44–3 / MSI1. (A) HSQC spectrum of MSI1 RRM1 collected in the presence (red) or absence (black) of R12–8–44–3. Assigned peaks showing the strongest chemical shift difference are labeled (Phe23, Lys93). (B) Mapping the location of these residues to our model of R12–8–44–3/MSI1 confirms that these residues comprise the intended binding site.

Cc1cc(C(=O)OCc2nc(N)c3c(C)c(C)sc3n2)c(N)cc1F [R12–8–44–3]
HSQC chemical shift changes on addition of compound: only a small number of peaks shift
